Common to all, as to format: cell-based, human
In test [1] the test system is clone 14 (apoptosis-resistant Hela S3 clone). The test can be described thus: Anti-Fas (CH-11) induced apoptosis with kinase inhibitors, FACS sub-G1 nuclei, clone 14. The settings on record: clone 14, 100 ng/ml CH-11, no FCS; for increase in apoptosis: SU 5402 10 μM, SB 203580 10 μM; for change in number of apoptotic cells / apoptosis rate (in words): AG 1295 1 μM, PD 98059 25 μM. The protocol:
(§1) Cells were grown in Ham's F12 medium without FCS and treated with 100 ng/ml anti-Fas antibody CH-11 with and without inhibitors. Apoptosis was measured by FACS analysis as described in the examples. SU 5402: 10 μM, AG 1295: 1 μM, SB 203580: 10 μM, PD 98059: 25 μM.
The cervix carcinoma cell line Hela S3 (ATCC CCL-2.2) was plated on 10 cm cell culture dishes (10^5 cells) in Ham's F12 growth medium containing 10% FCS. On the next day the medium was exchanged against medium without FCS supplemented with 100 ng/ml apoptosis activating anti-Fas antibody CH-11 (Coulter Immunotech). After 3 days when most of the cells were dead, the medium was exchanged once more against the medium containing 10% FCS without antibody. The surviving cells were clonally cultivated for 3 weeks. The clones were picked and expanded.
(§2) 50000 cells per well obtained from the parental cell line Hela S3 or from the clones, respectively, were grown in a 12 well cell culture dish for 2 days in 2 ml Ham's F12 medium containing 10% FCS. On the third day the cells were washed twice with 1 ml Ham's F12 medium and then the medium exchanged against 1 ml Ham's F12 medium. On the next day the medium was supplemented with the respective inhibitors and 100 to 200 ng/ml CH-11. On the next day the medium was decanted and transferred to an Eppendorf tube. The cells were washed once with 200 μl PBS, the PBS was transferred to the respective Eppendorf tube. Then the remaining cells were also transferred to the respective Eppendorf tube after treatment with EDTA/trypsin in PBS. The cells were pelleted by centrifugation, suspended in 500 μl hypotonic buffer (0.1% sodium citrate, 0.1% Triton-X100, 20 μg/ml propidium iodide) and incubated for 2-24 hours at 4° C. The resutling cell nuclei were analyzed by FACS.
(§3) The propidium iodide fluorescence of single nuclei was determined using a FACSCalibur (Becton Dickinson) cytometer. The forward scatter light (FSC) and the side scatter light (SSC) were recorded simultaneously. The FSC peak was adjusted at channel 500 in a 1024 channel linear scale and the red fluorescence peak at channel 200 of a logarithmic scale. The FSC cut-off value was determined by gating to 95% of the greatest nuclei of a negative control without supplements. Nuclei were classified as apoptotic when a subdiploid signal between the G1/G0 peak and channel 10 was present.

Test [2] concerns clone 20 (apoptosis-resistant Hela S3 clone). The test can be described thus: Anti-Fas (CH-11) induced apoptosis with kinase inhibitors, FACS sub-G1 nuclei, clone 20. The settings on record: clone 20, 100 ng/ml CH-11, no FCS; SB 203580 10 μM, PD 98059 25 μM. As for the experimental part:
as §1
(§4) The cervix carcinoma cell line Hela S3 (ATCC CCL-2.2) was plated on 10 cm cell culture dishes (10^5 cells) in Ham's F12 growth medium containing 10% FCS. On the next day the medium was exchanged against medium without FCS supplemented with 100 ng/ml apoptosis activating anti-Fas antibody CH-11 (Coulter Immunotech). […]
(§5) 50000 cells per well obtained from the parental cell line Hela S3 or from the clones, respectively, were grown in a 12 well cell culture dish for 2 days in 2 ml Ham's F12 medium containing 10% FCS. […] The resutling cell nuclei were analyzed by FACS.
(§6) The propidium iodide fluorescence of single nuclei was determined using a FACSCalibur (Becton Dickinson) cytometer. The forward scatter light (FSC) and the side scatter light (SSC) were recorded simultaneously. The FSC peak was adjusted at channel 500 in a 1024 channel linear scale and the red fluorescence peak at channel 200 of a logarithmic scale. The FSC cut-off value was determined by gating to 95% of the greatest nuclei of a negative control without supplements. […]

The next test relates to Hela S3. The test can be described thus: Anti-Fas (CH-11) induced apoptosis with kinase inhibitors, FACS sub-G1 nuclei, Hela S3. As to conditions: Hela S3, 100 ng/ml CH-11, no FCS; SU 5402 10 μM, AG 1295 1 μM, SB 203580 10 μM. As for the experimental part:
as §1, §2, §3

In test [3] the test system is clone 5 (apoptosis-resistant Hela S3 clone). The test can be described thus: Anti-Fas (CH-11) induced apoptosis with kinase inhibitors, FACS sub-G1 nuclei, clone 5. As to conditions: clone 5, CH-11; SU 5402, AG 1295. The protocol:
as §1, §4, §5, §6

4 compounds from patent US20040110177A1, “Method for identifying functional nucleic acids” (priority 2003, published 2004) can be followed below.

In the case of `C[S+]([O-])c1ccc(-c2nc(-c3ccncc3)c(-c3ccc(F)cc3)[nH]2)cc1` (centres unmarked) [SB 203580], the increase in apoptosis in test [1] stood at 60%; in the test with Hela S3, 25%. Besides, the “change in apoptosis rate (in words)” value in test [2] is listed as “slight increase of apoptosis”.

For the compound `COc1cccc(-c2cc(=O)c3ccccc3o2)c1N` [PD 98059], the “change in number of apoptotic cells / apoptosis rate (in words)” value in test [1] was “doubling of the apoptosis rate”. Besides, in test [2], the “change in apoptosis rate (in words)” value is recorded as “triples the apoptosis rate”.

On to `Cc1c[nH]c(/C=C2\C(=O)Nc3ccccc32)c1CCC(=O)O` [SU 5402], for which the increase in apoptosis is on record as about 300% in test [1], “about 50%” in test [3] and “about 50%” with Hela S3.

Take `Cc1cc2ncc(-c3ccccc3)nc2cc1C` [AG 1295]: in test [1], the “change in number of apoptotic cells / apoptosis rate (in words)” value is “nearly in a doubling of the number of apoptotic cells”. For the same compound, the increase in apoptosis is listed as 30% in test [3] and “about 30%” in the test on Hela S3.
